From US9856279B2 (AGIOS PHARMACEUTICALS, INC, priority 2011, dated 2018)

How the values were obtained:
IDH1 R132H = IDH1 R132H (Homo sapiens, UniProt O75874, R132H); assay: Assay for IDH1 R132H inhibitors (NADPH/aKG, resazurin detection); type: biochemical; details: enzyme assay of Example 12; read-out: IDH1R132H IC50
In short: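 Compound added to substrate mix (8 uM NADPH, 2 mM aKG), then enzyme mix (0.2 μg/ml IDH1 R132H); 50 min RT in 20 mM Tris pH 7.5, 150 mM NaCl, 10 mM MgCl2, 0.03% BSA. Resazurin detection mix (30 μM) 5 min RT; resorufin fluorescence Ex544/Em590.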

U87MG cells = assay: Cellular assay for IDH1m inhibitors: inhibition of 2-HG production (LC-MS, 48 hours) in U87MG cells; type: cell-based; details: Homo sapiens, U-87 MG, inhibition of 2-HG production, U87R132H cells; read-out: U87R132H IC50
In short: (§1)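 The read-out is 2-HG in culture medium, measured by LC-MS after 48 h of compound exposure (0.2% DMSO) in cells plated overnight at 5000 per well in DMEM/10% FBS. IC50 is 50% reduction relative to DMSO wells. Luminescent viability (Cell Titer Glo) followed at 72 h.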

HT1080 cells = assay: Cellular assay for IDH1m inhibitors: inhibition of 2-HG production (LC-MS, 48 hours) in HT1080 cells; type: cell-based; details: Homo sapiens, HT-1080; inhibition of 2-HG production, HT1080 cells; read-out: HT1080 IC50
In short: as §1

Chain of IDH1 R132H (O75874 whole entry R132H): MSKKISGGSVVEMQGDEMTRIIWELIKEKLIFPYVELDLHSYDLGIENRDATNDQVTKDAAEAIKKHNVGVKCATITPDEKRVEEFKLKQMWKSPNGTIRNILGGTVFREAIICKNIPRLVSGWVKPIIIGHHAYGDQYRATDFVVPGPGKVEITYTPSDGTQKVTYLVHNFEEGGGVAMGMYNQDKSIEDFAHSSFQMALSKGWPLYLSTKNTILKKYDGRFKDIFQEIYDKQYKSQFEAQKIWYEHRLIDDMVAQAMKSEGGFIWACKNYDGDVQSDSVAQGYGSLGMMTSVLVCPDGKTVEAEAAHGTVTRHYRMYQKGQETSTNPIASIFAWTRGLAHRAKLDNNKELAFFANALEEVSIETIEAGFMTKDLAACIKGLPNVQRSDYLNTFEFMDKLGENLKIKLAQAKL

| SMILES | IC50 (IDH1 R132H) [µM] | IC50 (U87MG cells) [µM] | IC50 (HT1080 cells) [µM] |
| --- | --- | --- | --- |
| C=Cc1cc(-c2c(C3CC3)nc(N3CCN(C(=O)CCOC)[C@H](C4CC4)C3)c(C#N)c2C)ccn1 [Compound 558, (R)-2-cyclopropyl-6-(3-cyclopropyl-4-(3-methoxypropanoyl)piperazin-1-yl)-4-methyl-2′-vinyl-3,4′-bipyridine-5-carbonitrile] | < 0.5 | < 0.5 | < 0.5 |
| C=Cc1cc(-c2cc(C#N)c(N3CCN(C(=O)C[C@@H](C)O)[C@H](C4CC4)C3)nc2C2CC2)ccn1 [Compound 585, 2-cyclopropyl-6-((R)-3-cyclopropyl-4-((R)-3-hydroxybutanoyl)piperazin-1-yl)-2′-vinyl-3,4′-bipyridine-5-carbonitrile] | < 0.5 | < 0.5 | < 0.5 |
| C=Cc1cc2c(-c3cc(C#N)c(N4CCN(C(=O)C5CC5)[C@H](C5CC5)C4)nc3C3CC3)cccc2cn1 [Compound 565, (R)-2-(4-(cyclopropanecarbonyl)-3-cyclopropylpiperazin-1-yl)-6-cyclopropyl-5-(3-vinylisoquinolin-5-yl)nicotinonitrile] | < 0.5 | 0.5 to 1 | 0.5 to 1 |
| C=Cc1cc(Nc2cc(C#N)c(N3CCN(C(=O)CCOC)[C@H](C)C3)nc2C2CC2)ccn1 [Compound 642, (R)-6-cyclopropyl-2-(4-(3-methoxypropanoyl)-3-methylpiperazin-1-yl)-5-((2-vinylpyridin-4-yl)amino)nicotinonitrile] | < 0.5 | < 0.5 | < 0.5 |
| C=Cc1cc(-c2cc(C#N)c(N3CCN(C(=O)C4CC4)[C@H](C4CC4)C3)nc2C2CC2)ncn1 [Compound 541, (R)-2-(4-(cyclopropanecarbonyl)-3-cyclopropylpiperazin-1-yl)-6-cyclopropyl-5-(6-vinylpyrimidin-4-yl)nicotinonitrile] | < 0.5 | < 0.5 | < 0.5 |
| COCCC(=O)N1CCN(c2nc(C3CC3)c(OCc3cccc(OC)c3)cc2C#N)C[C@H]1C [Compound 280, (R)-6-cyclopropyl-5-(3-methoxybenzyloxy)-2-(4-(3-methoxypropanoyl)-3-methylpiperazin-1-yl)nicotinonitrile] | < 0.5 | 1 to 10 | 1 to 10 |
| C=Cc1cc(-c2cc(C#N)c(N3CCN(C(=O)CCO)[C@H](C4CC4)C3)nc2C2CC2)c2ccncc2n1 [Compound 688, (R)-6-cyclopropyl-2-(3-cyclopropyl-4-(3-hydroxypropanoyl)piperazin-1-yl)-5-(2-vinyl-1,7-naphthyridin-4-yl)nicotinonitrile] | < 0.5 | < 0.5 | < 0.5 |
| COCCC(=O)N1CCN(c2nc(C3CC3)c(-c3cccc(N4CC=CC4=O)c3)cc2C#N)C[C@H]1C [Compound 459, (R)-6-cyclopropyl-2-(4-(3-methoxypropanoyl)-3-methylpiperazin-1-yl)-5-(3-(2-oxo-2,5-dihydro-1H-pyrrol-1-yl)phenyl)nicotinonitrile] | < 0.5 | < 0.5 | < 0.5 |
| C=Cc1ncc2c(-c3cc(C#N)c(N4CCN(C(=O)CCOC)[C@H](C(C)C)C4)nc3C3CC3)cccc2n1 [Compound 634, (R)-6-cyclopropyl-2-(3-isopropyl-4-(3-methoxypropanoyl)piperazin-1-yl)-5-(2-vinylquinazolin-5-yl)nicotinonitrile] | < 0.5 | < 0.5 | < 0.5 |
| C=Cc1cc(-c2c(C3CC3)nc(N3CCN(C(=O)CN4CCC4=O)[C@H](C4CC4)C3)c(C#N)c2C)ccn1 [Compound 811] | < 0.5 | < 0.5 | < 0.5 |
| C=Cc1cc(-c2c(C3CC3)nc(N3CCN(C(=O)CC4CC4)[C@H](C4CC4)C3)c(C#N)c2C)ccn1 [Compound 787, (R)-2-cyclopropyl-6-(3-cyclopropyl-4-(2-cyclopropylacetyl)piperazin-1-yl)-4-methyl-2′-vinyl-3,4′-bipyridine-5-carbonitrile] | < 0.5 | < 0.5 | < 0.5 |
| C[C@@H]1CN(c2nc(C3CC3)c(-c3cccc4cnccc34)cc2C#N)CCN1C(=O)CC(F)(F)F [Compound 386, (R)-6-cyclopropyl-5-(isoquinolin-5-yl)-2-(3-methyl-4-(3,3,3-trifluoropropanoyl)piperazin-1-yl)nicotinonitrile] | < 0.5 | 0.5 to 1 | 1 to 10 |
| C=Cc1cc(-c2cc(C#N)c(N3CCN(C(=O)C4CC4)[C@H](C4CC4)C3)nc2C2CC2)c2ccccc2n1 [Compound 542, (R)-2-(4-(cyclopropanecarbonyl)-3-cyclopropylpiperazin-1-yl)-6-cyclopropyl-5-(2-vinylquinolin-4-yl)nicotinonitrile] | < 0.5 | < 0.5 | < 0.5 |
| C=Cc1cnnc(Nc2cc(C#N)c(N3CCN(C(=O)CCOC)[C@H](C4CC4)C3)nc2C2CC2)c1 [Compound 775, (R)-6-cyclopropyl-2-(3-cyclopropyl-4-(3-methoxypropanoyl)piperazin-1-yl)-5-((5-vinylpyridazin-3-yl)amino)nicotinonitrile] | < 0.5 | < 0.5 | < 0.5 |
| C=Cc1cc(Nc2cc(C#N)c(N3CCN(C(=O)C[C@H]4CCO4)[C@H](C4CC4)C3)nc2C2CC2)ccn1 [Compound 751, 6-cyclopropyl-2-((R)-3-cyclopropyl-4-(2-((R)-oxetan-2-yl)acetyl)piperazin-1-yl)-5-(2-vinylpyridin-4-ylamino)nicotinonitrile] | < 0.5 | < 0.5 | < 0.5 |
| COCCC(=O)N1CCN(c2nc(C3CC3)c(-c3ccc(CNS(C)(=O)=O)cc3)c(C)c2C#N)C[C@H]1C [Compound 330, (R)—N-(4-{5-cyano-2-cyclopropyl-6-[4-(3-methoxy-propionyl)-3-methyl-piperazin-1-yl]-4-methyl-pyridin-3-yl}-benzyl)-methanesulfonamide] | < 0.5 | < 0.5 | < 0.5 |
| C=Cc1cc(-c2cc(C#N)c(N3CCN(C(C)=O)[C@H](C4CC4)C3)nc2C2CC2)ccn1 [Compound 562, (R)-6-(4-acetyl-3-cyclopropylpiperazin-1-yl)-2-cyclopropyl-2′-vinyl-3,4′-bipyridine-5-carbonitrile] | < 0.5 | < 0.5 | < 0.5 |
| C=Cc1cc(-c2c(C3CC3)nc(N3CCN(C(=O)C[C@H]4CCO4)[C@H](C4CC4)C3)c(C#N)c2C)ccn1 [Compound 760, 2-cyclopropyl-6-((R)-3-cyclopropyl-4-(2-((R)-oxetan-2-yl)acetyl)piperazin-1-yl)-4-methyl-2′-vinyl-3,4′-bipyridine-5-carbonitrile] | < 0.5 | < 0.5 | < 0.5 |
| C=Cc1cc(-c2cc(C#N)c(N3CCN(C(=O)COC)[C@H](C4CC4)C3)nc2C2CC2)ccn1 [Compound 590, (R)-2-cyclopropyl-6-(3-cyclopropyl-4-(2-methoxyacetyl)piperazin-1-yl)-2′-vinyl-3,4′-bipyridine-5-carbonitrile] | < 0.5 | < 0.5 | < 0.5 |
| N#Cc1cc(Nc2ccnc3ccccc23)c(C2CC2)nc1N1CCN(C(=O)C2CC2)[C@H](C2CC2)C1 [Compound 528, (R)-2-(4-(cyclopropanecarbonyl)-3-cyclopropylpiperazin-1-yl)-6-cyclopropyl-5-(quinolin-4-ylamino)nicotinonitrile] | < 0.5 | < 0.5 | 0.5 to 1 |
| C=Cc1cc(-c2c(C3CC3)nc(N3CCN(C(=O)CCOC)[C@H](C)C3)c(C#N)c2C)ncn1 [Compound 627, (R)-6-cyclopropyl-2-(4-(3-methoxypropanoyl)-3-methylpiperazin-1-yl)-4-methyl-5-(6-vinylpyrimidin-4-yl)nicotinonitrile] | < 0.5 | < 0.5 | < 0.5 |
| COCCC(=O)N1CCN(c2nc(C3CC3)c(-c3ccnc4ccccc34)cc2C#N)C[C@H]1C [Compound 315, (R)-6-cyclopropyl-2-(4-(3-methoxypropanoyl)-3-methylpiperazin-1-yl)-5-(quinolin-4-yl)nicotinonitrile] | < 0.5 | 0.5 to 1 | < 0.5 |
| C=Cc1nccc2ccc(-c3cc(C#N)c(N4CCN(C(=O)C5CC5)[C@H](C5CC5)C4)nc3C3CC3)cc12 [Compound 710, (R)-2-(4-(cyclopropanecarbonyl)-3-cyclopropylpiperazin-1-yl)-6-cyclopropyl-5-(1-vinylisoquinolin-7-yl)nicotinonitrile] | < 0.5 | < 0.5 | < 0.5 |
| COCCC(=O)N1CCN(c2nc(C3CC3)c(-c3cccc4cnc(C)cc34)cc2C#N)C[C@H]1C [Compound 433, (R)-6-cyclopropyl-2-(4-(3-methoxypropanoyl)-3-methylpiperazin-1-yl)-5-(3-methylisoquinolin-5-yl)nicotinonitrile] | < 0.5 | < 0.5 | < 0.5 |
| COCCC(=O)N1CCN(c2nc(C3CC3)c(OCc3ccc(CO)cc3)cc2C#N)C[C@H]1C [Compound 301, (R)-6-cyclopropyl-5-(4-(hydroxymethyl)benzyloxy)-2-(4-(3-methoxypropanoyl)-3-methylpiperazin-1-yl)nicotinonitrile] | < 0.5 | 1 to 10 | 1 to 10 |
